How the values were obtained:
[1] = tested on: HGC-27; experiment: Antiproliferative activity against human HGC27 cells after 48 hrs by MTT assay; type: functional, cell-based; details: HGC-27, 48 h
[2] = tested on: MDA-MB-231; experiment: Antiproliferative activity against human MDA-MB-231 cells after 48 hrs by MTT assay; type: functional, cell-based; details: MDA-MB-231, 48 h
[3] = tested on: HT-29; experiment: Antiproliferative activity against human HT-29 cells after 48 hrs by MTT assay; type: functional, cell-based; details: HT-29, 48 h
[4] = tested on: JIMT-1; experiment: Antiproliferative activity against human JIMT1 cells by MTT assay; type: functional, cell-based
[5] = tested on: MCF7; experiment: Antiproliferative activity against human MCF7 cells by MTT assay; type: functional, cell-based
[6] = tested on: Caco-2; experiment: Antiproliferative activity against human Caco2 cells by MTT assay; type: functional, cell-based
[7] = tested on: U-87 MG; experiment: Antiproliferative activity against human U87 cells by MTT assay; type: functional, cell-based, U-87MG ATCC
[8] = tested on: HeLa; experiment: Antiproliferative activity against human HeLa cells by MTT assay; type: functional, cell-based
[9] = tested on: HT-29; experiment: Antiproliferative activity against human HT-29 cells by MTT assay; type: functional, cell-based
[10] = tested on: HGC-27; experiment: Antiproliferative activity against human HGC27 cells by MTT assay; type: functional, cell-based
[11] = tested on: MDA-MB-231; experiment: Antiproliferative activity against human MDA-MB-231 cells by MTT assay; type: functional, cell-based

Row | IC50 [5] | SMILES | IC50 [4] | further results
1 | 130 nM | CC[C@@H](C(=O)[C@@H](C)[C@@H](O)[C@H](C)[C@@H]1O[C@@H]([C@@H](CC)C(=O)O)CC[C@@H]1C)[C@H]1O[C@]2(C=C[C@@H](OC(=O)c3ccco3)[C@]3(CC[C@@](C)([C@H]4CC[C@](O)(CC)[C@H](C)O4)O3)O2)[C@H](C)C[C@@H]1C | 160 nM | –
2 | 240 nM | CC[C@@H](C(=O)[C@@H](C)[C@@H](O)[C@H](C)[C@@H]1O[C@@H]([C@@H](CC)C(=O)O)CC[C@@H]1C)[C@H]1O[C@]2(C=C[C@@H](OC(=O)C3CCCCC3)[C@]3(CC[C@@](C)([C@H]4CC[C@](O)(CC)[C@H](C)O4)O3)O2)[C@H](C)C[C@@H]1C | 300 nM | –

Second part, the compound before the results:

Row | SMILES | IC50 [5] | IC50 [4] | further results
3 | CC[C@@H](C(=O)[C@@H](C)[C@@H](O)[C@H](C)[C@@H]1O[C@@H]([C@@H](CC)C(=O)O)CC[C@@H]1C)[C@H]1O[C@@]2(C=C[C@@H](OCc3ccccc3)[C@@]3(CC[C@@](C)([C@H]4CC[C@](O)(CC)[C@H](C)O4)O3)O2)[C@H](C)C[C@@H]1C | – | – | IC50 [1]: 4140 nM; IC50 [2]: 6560 nM; IC50 [3]: 2800 nM
4 | CC[C@@H](C(=O)[C@@H](C)[C@@H](O)[C@H](C)[C@@H]1O[C@@H]([C@@H](CC)C(=O)O)CC[C@@H]1C)[C@H]1O[C@]2(C=C[C@@H](OC(=O)c3ccccc3)[C@]3(CC[C@@](C)([C@H]4CC[C@](O)(CC)[C@H](C)O4)O3)O2)[C@H](C)C[C@@H]1C | 200 nM | 360 nM | –
5 | CC[C@@H](C(=O)[C@@H](C)[C@@H](O)[C@H](C)[C@@H]1O[C@@H]([C@@H](CC)C(=O)O)CC[C@@H]1C)[C@H]1O[C@]2(C=C[C@H](n3cc(-c4ccc(C(C)(C)C)cc4)nn3)[C@]3(CC[C@@](C)([C@H]4CC[C@](O)(CC)[C@H](C)O4)O3)O2)[C@H](C)C[C@@H]1C | – | – | IC50 [6]: 1820 nM; IC50 [7]: 18900 nM; IC50 [8]: 2010 nM
6 | CC[C@@H](C(=O)[C@@H](C)[C@@H](O)[C@H](C)[C@@H]1O[C@@H]([C@@H](CC)C(=O)O)CC[C@@H]1C)[C@H]1O[C@@]2(C=C[C@@H](O)[C@]3(CC[C@@](C)([C@H]4CC[C@](O)(CC)[C@H](C)O4)O3)O2)[C@H](C)C[C@@H]1C | – | – | IC50 [1]: > 10000 nM; IC50 [2]: > 10000 nM; IC50 [3]: > 10000 nM
7 | CCOC(=O)O[C@@H]1C=C[C@]2(O[C@H]([C@@H](CC)C(=O)[C@@H](C)[C@@H](O)[C@H](C)[C@@H]3O[C@@H]([C@@H](CC)C(=O)O)CC[C@@H]3C)[C@@H](C)C[C@H]2C)O[C@@]12CC[C@@](C)([C@H]1CC[C@](O)(CC)[C@H](C)O1)O2 | 130 nM | 90 nM | –
8 | CC[C@@H](C(=O)[C@@H](C)[C@@H](O)[C@H](C)[C@@H]1O[C@@H]([C@@H](CC)C(=O)O)CC[C@@H]1C)[C@H]1O[C@]2(C=C[C@@H](OC(=O)c3cnco3)[C@]3(CC[C@@](C)([C@H]4CC[C@](O)(CC)[C@H](C)O4)O3)O2)[C@H](C)C[C@@H]1C | 230 nM | 240 nM | –
9 | CCNC(=O)O[C@@H]1C=C[C@]2(O[C@H]([C@@H](CC)C(=O)[C@@H](C)[C@@H](O)[C@H](C)[C@@H]3O[C@@H]([C@@H](CC)C(=O)O)CC[C@@H]3C)[C@@H](C)C[C@H]2C)O[C@@]12CC[C@@](C)([C@H]1CC[C@](O)(CC)[C@H](C)O1)O2 | 160 nM | 260 nM | –
10 | CC[C@@H](C(=O)[C@@H](C)[C@@H](O)[C@H](C)[C@@H]1O[C@@H]([C@@H](CC)C(=O)O)CC[C@@H]1C)[C@H]1O[C@]2(C=C[C@H](n3cc(-c4ccccn4)nn3)[C@]3(CC[C@@](C)([C@H]4CC[C@](O)(CC)[C@H](C)O4)O3)O2)[C@H](C)C[C@@H]1C | – | – | IC50 [6]: 3310 nM; IC50 [7]: 15700 nM; IC50 [8]: 610 nM
11 | CC[C@@H](C(=O)[C@@H](C)[C@@H](O)[C@H](C)[C@@H]1O[C@@H]([C@@H](CC)C(=O)O)CC[C@@H]1C)[C@H]1O[C@]2(C=C[C@@H](OC(C)=O)[C@]3(CC[C@@](C)([C@H]4CC[C@](O)(CC)[C@H](C)O4)O3)O2)[C@H](C)C[C@@H]1C | 110 nM | 110 nM | –
12 | CC[C@@H](C(=O)[C@@H](C)[C@@H](O)[C@H](C)[C@@H]1O[C@@H]([C@@H](CC)C(=O)O)CC[C@@H]1C)[C@H]1O[C@]2(C=C[C@@H](OC(=O)Oc3ccccc3)[C@]3(CC[C@@](C)([C@H]4CC[C@](O)(CC)[C@H](C)O4)O3)O2)[C@H](C)C[C@@H]1C | 240 nM | 200 nM | –
13 | CC[C@@H](C(=O)[C@@H](C)[C@@H](O)[C@H](C)[C@@H]1O[C@@H]([C@@H](CC)C(=O)O)CC[C@@H]1C)[C@H]1O[C@]2(C=C[C@H](OC(=O)c3ccc(F)cc3)[C@]3(CC[C@@](C)([C@H]4CC[C@](O)(CC)[C@H](C)O4)O3)O2)[C@H](C)C[C@@H]1C | – | – | IC50 [9]: 160 nM; IC50 [10]: 280 nM; IC50 [11]: 790 nM

— ChEMBL document CHEMBL4316586, “A comprehensive review of salinomycin derivatives as potent anticancer and anti-CSCs agents” (Eur J Med Chem, 2019)
